Drawing on the pKa sets of Baltruschat and Czodrowski (2020), this text covers pKa for 135 molecules.

Where “and” joins values, the source holds several entries; their conditions need not be identical. Equal values may be shown once.

For `C[Si](C)(C)O[Si](C)(C)CCCC(=O)O`, for the setting “acidic group”, the pKa was found to be 5.03.
Still for that read-out and setting: under `Cc1nsc(S)n1` stands 5.18.
`CCC1=NCCC1` had a pKa (basic group) of 7.91.
In the case of `Cc1ncncc1N`, where the note is “basic group”, the pKa was 3.15.
The molecule `O=c1cc(-c2ccc(O)cc2)ss1` had a pKa (acidic group) of 8.27.
For `CC(C)(C(=O)O)C(C#N)c1ccccc1` (stereo not given), the pKa (acidic group) was found to be 3.95.
`COc1cc(NS(C)(=O)=O)ccc1-c1cn2cccnc2n1` had a pKa (basic group) of 4.17.
Same read-out and setting: under `CNc1cnc2ccccc2n1` stands 4.1; under `Nc1ccc(-c2ccc(/[NH+]=C/c3ccc(O)cc3)cc2)cc1`, 5.05.
For `Oc1onc2c1CC[NH2+]CC2`, the pKa (acidic group) stood at 3.3.
Consider `C#CC(C)(C)NC(C)(C)C=C`, for which the pKa (basic group) was 8.2.
In the case of `CC[N+](O)(CC)CC`, for the setting “acidic group”, the pKa was 5.13.
As to `C[C@@H]1C[C@H](OC(=O)c2ccccc2)CC(C)(C)N1`, the pKa (basic group) was 8.97.
`NNC(=O)c1ccccc1[NH3+]` came in with a pKa (basic group) of 1.85.
Turning to `COc1ccc2c(c1)CCC(=O)C2`, the pKa (acidic group) was found to be 13.3.
On to `O=[N+]([O-])c1ccc2[nH]c(C(F)(F)F)nc2c1`, for which the pKa (basic group) was 0.18.
Same read-out and setting: the value for `CCN(CC)CC(=O)NC1CCc2ccccc21` (stereo not given) was 8.19.
`Cc1ccc(C[n+]2ccc(C(=O)Cc3ccccc3)cc2)cc1` returned a pKa (acidic group) of 8.91.
As to `CC(C)[C@@]12C[NH2+][C@@H](C(=O)O)[C@@H]1CC(=O)O2`, under “acidic group”, the pKa was found to be 2.45.
The molecule `Cc1cc(-c2c(C)noc2O)on1` had a pKa (acidic group) of 3.2.
For the setting “basic group”, `C[C@@H]1N[C@H]1C` gave a pKa of 5.33.
Take `Nc1ncc(-c2ccccc2)s1`: the pKa (basic group) stood at 4.9.
Where the note is “acidic group”, `NC(=O)C(N)=S` displayed a pKa of 11.5.
Molecule `CN(C)S(=O)(=O)c1ccc(N)cc1` yielded a pKa (basic group) of 1.53.
As for `CCN(CC)c1nnn[nH]1`, the pKa (acidic group) was 6.33.
`O=C(O)/C=C\c1ccc(O)cc1`: the pKa (acidic group) stood at 4.08.
On to `CC(C)N(C)/C=N/c1ccc(-c2c[nH]cn2)cc1`, for which the pKa (basic group) worked out at 8.72.
Consider `Oc1cccc2ccncc12`, for which the pKa turned out to be 8.4 (acidic group) and 5.66 (basic group).
In the case of `Nc1nc(N)c2cn[nH]c2n1`, the pKa (basic group) was 5.58.
The same measure, in the same setting: the value for `c1ccc(-c2ccc3ncc(CN4CCOCC4)n3n2)cc1` was 6.21.
On to `CC(=O)Nc1cccc(O)c1`, for which, under “acidic group”, the pKa came out at 9.38.
In the case of `CCC(=O)NOC(=O)/C=C/c1ccccc1`, the pKa (acidic group) was found to be 6.8.
With `Oc1c(Br)cc(Br)c2cccnc12`, the pKa turned out to be 7.3 (acidic group) and 2.6 (basic group).
As for `CC(C)C[C@H]([NH3+])C(=O)O`, the pKa (acidic group) worked out at 2.54.
Consider `NC(=O)Cc1ccc(C(=O)O)cc1`, for which the pKa (acidic group) stood at 4.06.
On to `O=C(S)c1ccccc1`, for which the pKa (acidic group) is 2.44.
As to `FC(F)(F)c1cc(-c2ccccc2)nnc1NCCN1CCOCC1`, the pKa (basic group) worked out at 6.75.
The molecule `CCN(CC)C(=S)NC(=O)c1cccc(F)c1` had a pKa (acidic group) of 8.21.
Where the note is “acidic group”, `O=C(O)c1cc([N+](=O)[O-])ccc1C(=O)c1ccccc1` registered a pKa of 2.86.
For the setting “acidic group”, `O=C(O)Cc1ccc2ccccc2c1` gave a pKa of 4.26.
The molecule `Oc1ccccc1C1CCNCCNCCCNCCN1` (stereo not given) had a pKa (acidic group) of 10.8.
`Nc1ccnc2ccc3ncccc3c12` yielded a pKa (basic group) of 7.3.
For the setting “basic group”, `N[C@H]1CCc2ccccc21` registered a pKa of 9.21.
For the molecule `CSc1ccccc1C(=O)O`, the pKa (acidic group) came to 3.89.
The molecule `c1ccc(C2=Nc3ccccc3CO2)cc1` had a pKa (basic group) of 3.48.
With `NNC(=O)CF`, the pKa (acidic group) was determined as 11.3.
On to `CCCCCCc1c(-c2ccccc2)nn(-c2ccccc2)c1O`, for which the pKa (acidic group) came out at 7.4.
`Nc1ccc(S(=O)(=O)Nc2ncco2)cc1` registered a pKa (acidic group) of 6.5.
`OCCS` had a pKa (acidic group) of 9.47.
`OC[C@H](O)[C@H](O)[C@@H](O)[C@H](O)c1nc2ccccc2[nH]1`: under “basic group”, the pKa was determined as 5.28.
On the same count and under the same terms, the value for `Cc1cccc(Cl)c1/C(=N/CCC[NH+](C)C)c1ccccc1` was 3.26; that for `CN1CCCC1c1cccnc1` (stereo not given) was 8.06.
As to `Oc1ccc(Br)cc1Br`, the pKa (acidic group) came to 7.77.
Take `O=C(O)CCCP`: the pKa (acidic group) is 4.53.
Turning to `Nc1cccc2cccnc12`, under “basic group”, the pKa turned out to be 4.01.
For the setting “basic group”, `CC(O)[C@@H]1CN[C@H](C(=O)[O-])[C@H]1CC(=O)[O-]` (stereo not given in full) gave a pKa of 10.1.
For the setting “acidic group”, `CC(=O)Nc1nnn[nH]1` displayed a pKa of 4.53.
Molecule `CN(C)c1ccc(N(C)C)cc1` returned a pKa (basic group) of 6.37.
Regarding `Nc1ncc(Br)s1`, the pKa (basic group) is 3.61.
Turning to `CC(C)=CCC1C(=O)C(CC=C(C)C)(CC=C(C)C)C(O)(C(=O)[O-])C1=O` (stereo not given), under “acidic group”, the pKa amounted to 9.7.
With `Cc1cccc(C(C)C)c1O`, the pKa (acidic group) was determined as 10.8.
Molecule `CCCC(C)C1(CC)C(=O)NC(=O)NC1=O` (stereo not given) came in with a pKa (acidic group) of 8.08.
Still for that read-out and setting: under `CC[NH+]1CCC[C@@H]1CNC(=O)c1c(OC)ccc([N+](=O)[O-])c1O` stands 5.75.
Molecule `C[NH2+]Cc1ccccn1` had a pKa (basic group) of 2.91.
For `Cc1cc(Cc2cc(O)ccc2C)c([O-])c([N+](=O)[O-])c1`, the pKa (acidic group) was found to be 10.4.
`CCCOC(=O)c1ccc(O)cc1` came in with a pKa (acidic group) of 8.3.
Under “acidic group”, `O=C1C=C(S(=O)(=O)[O-])c2[nH]ncc2/C1=N/O` came in with a pKa of 7.75.
With `N[C@H]1CC(=O)NC1=O`, for the setting “basic group”, the pKa worked out at 9.
`O=C(/C=N/O)NCCN1CCOCC1` showed a pKa (basic group) of 6.19.
For the molecule `CN(C)Cc1cc(/N=N/c2ccccc2)ccc1[O-]`, under “basic group”, the pKa was found to be 10.2.
With `C[C@@H]1CC[C@@H]2CC[C@H](C)N21`, the pKa (basic group) came out at 10.2.
`CC(=O)C1C(=O)OC(=O)C=C1C` (stereo not given) displayed a pKa (acidic group) of 1.34.
For the setting “basic group”, `CCN(CC)CC(O)CO` (stereo not given) showed a pKa of 9.77.
As for `CC#C[C@H](C)Oc1cc(N)c(Cl)cc1C(=O)N[C@@H]1C[C@H]2CC[C@@H](C1)N2C`, where the note is “basic group”, the pKa is 9.95.
Molecule `CCSC(C)O` (stereo not given) showed a pKa (acidic group) of 14.3.
The same measure, in the same setting: under `Nc1nc(O)[nH+]c2nc[nH]c12` stands 4.51; under `O=S(=O)(Nc1ncc(Cl)cn1)c1ccc(O)cc1`, 5.59.
As for `C[Si](C)(CNC1CCCCC1)O[Si](C)(C)CNC1CCCCC1`, the pKa (basic group) turned out to be 10.1.
As for `Cc1ccc(/C=N/O)cc1`, the pKa (acidic group) was 10.9.
Turning to `CN(C)CCCN(C)C`, the pKa (basic group) is 9.8.
Turning to `Cc1cc2ncn([C@H]3OC[C@@H](O)[C@@H](O)[C@@H]3O)c2cc1C`, the pKa (basic group) worked out at 4.58.
Consider `[NH3+][C@@H](Cc1c[nH]cn1)C(=O)N[C@@H](Cc1c[nH]c[nH+]1)C(=O)[O-]`, for which the pKa (basic group) was found to be 5.6.
Consider `O=C(O)c1cnccn1`, for which the pKa is 2.7 (acidic group) and -0.7 (basic group).
For the molecule `O=C(N/[NH+]=C/c1ccccc1)c1ccncc1`, under “basic group”, the pKa came out at 1.82.
Under “basic group”, `CN1CCN(C(c2ccccc2)c2ccc(Cl)cc2)CC1` (stereo not given) displayed a pKa of 7.81.
Consider `COc1nc(N)c2cnn(C)c2n1`, for which the pKa (basic group) was found to be 3.66.
Molecule `Cc1nnnn1CC(=O)O` yielded a pKa (acidic group) of 2.16.
For `COc1nc(-n2nc(C)cc2O)nc(C)c1C`, the pKa (acidic group) stood at 7.64.
`CC(=O)Nc1ccccn1` gave a pKa (basic group) of 4.09.
For `CNCCC[NH2+]C`, the pKa (basic group) came to 8.68.
Same read-out and setting: the value for `C[NH+](C)Cc1cnc2ccc(-c3ccccc3)nn12` was 2.99.
For `COCCNC(=S)S`, the pKa (acidic group) came to 2.85.
Take `c1cc(N2CCOCC2)ccc1N1CCCCC1`: where the note is “basic group”, the pKa is 6.7.
On to `C[Si](C)(C)OC1CN(Cc2ccc(Cl)cc2)C1`, for which the pKa (basic group) came to 7.72.
For `CC(=S)Nc1ccc(Cl)cc1`, the pKa (acidic group) is 11.1.
Molecule `CCN(CC)CC(=O)Nc1c(C)cc(C)cc1C` returned a pKa (basic group) of 7.9.
On to `O=NNc1nc([N+](=O)[O-])nn1-c1ccccc1`, for which the pKa (acidic group) was determined as 3.33.
Where the note is “basic group”, `CC12CN3CC(C)(C1)CC(C)(C3)C2` came in with a pKa of 10.7.
Molecule `C[NH+](C)CCC/N=C(\c1ccccc1)c1cccc2ccccc12` gave a pKa (basic group) of 4.16.
Turning to `C[C@H]1CN[C@@H](C)CN1`, the pKa (basic group) is 9.98.
Where the note is “acidic group”, `CC(C)P(=O)(O)C(C)C` returned a pKa of 3.56.
Molecule `O=c1cc(-c2ccccc2)oc2ccc(O)cc12` came in with a pKa (acidic group) of 9.09.
In turn, `CC(C)(/C=C/C(=O)[O-])c1cc(Br)ccc1O` had a pKa (acidic group) of 10.
For `[O-]c1ccc2ccccc2[n+]1O`, the pKa (acidic group) was determined as 6.88.
Same read-out and setting: the value for `O=C1CC[C@@H](C(=O)O)N1` was 3.4.
For the molecule `Cc1ccc2ccccc2n1`, the pKa (basic group) amounted to 5.69.
Take `CC(=O)C1CCCCC1=O` (stereo not given): the pKa (acidic group) came out at 10.2.
For `O=C(O)/C=C\SC1CCCCC1`, the pKa (acidic group) was determined as 4.95.
In the case of `CNC(=S)OC(C)C`, the pKa (acidic group) was 11.6.
`Cc1ccc2nc3ccc(O)cc3nc2c1` showed a pKa (acidic group) of 7.2.
On the same count and under the same terms, the value for `NS(=O)(=O)c1ccccc1` was 9.7.
In the case of `NC(C[NH3+])C[NH3+]`, the pKa (basic group) is 3.72.
As to `Cc1ncc(CO)c(CO)c1O`, the pKa is, setting by setting: (acidic group) 8.98; (basic group) 4.96.
Regarding `Nc1cccc2ccnnc12`, the pKa (basic group) amounted to 3.68.
With `CN(C)CCN(C)CCN(C)C`, the pKa (basic group) was 9.55 and 9.4.
Under “basic group”, `Cn1cnc2cnc([O-])nc21` registered a pKa of 9.19.
`Cc1nnn[nH]1` displayed a pKa (acidic group) of 5.52.
For the molecule `NCCC[n+]1cc(Br)c2ccccc2c1`, the pKa (basic group) turned out to be 9.53.
As to `CN(C)c1cccc[n+]1O`, the pKa (acidic group) came out at 2.27.
`C[NH+](C)CCC/N=C(\c1ccccc1)c1ccccc1-c1ccccc1` returned a pKa (basic group) of 4.43.
Turning to `O=S(=O)(O)c1ccc(O)cc1`, the pKa (acidic group) worked out at 4.51.
Consider `Cc1cnc2ccccc2c1`, for which, under “basic group”, the pKa worked out at 5.15.
Molecule `N[C@H]1C[C@@H]1N` had a pKa (basic group) of 8.82.
Take `O/N=C/c1ccc(O)cc1O`: the pKa (acidic group) was 8.05.
Consider `CC1=CC(=O)C(C(C)C)=C/C1=N/c1ccc(O)cc1`, for which the pKa (acidic group) stood at 8.8.
In turn, `CN(C)c1ccc(/C=C/c2cc[n+]([O-])cc2)cc1` displayed a pKa (basic group) of 4.3.
For the setting “basic group”, `OCCNC1CC[NH+](Cc2ccccc2)CC1` came in with a pKa of 6.67.
In turn, `NCCCCN` came in with a pKa (basic group) of 10.6.
`CNCCc1ccc(O)c(O)c1` had a pKa (acidic group) of 10.6 and a pKa (basic group) of 8.84.
Molecule `C(C[NH2+]CCc1nnn[nH]1)[NH2+]CCc1nnn[n-]1` displayed a pKa (acidic group) of 4.09.
`O=P(O)(C1CCCCC1)C1CCCCC1` showed a pKa (acidic group) of 3.47.
Take `O=C(CC(=O)C(F)(F)F)c1cccs1`: where the note is “acidic group”, the pKa amounted to 6.31.
Under “acidic group”, `O=C(O)C1CCCc2ccccc2O1` (stereo not given) returned a pKa of 3.63.
Consider `[Se-]c1ncnc2nc[nH]c12`, for which, under “basic group”, the pKa stood at 7.33.
Consider `CC(O)CN(CC(C)O)C(C)(C)C` (stereo not given), for which the pKa (basic group) amounted to 9.36.
